Results published in US5457108A, “5-oxo-dibenzo[a,d]cyclohepta-1,4-dienes” (Bayer Aktiengesellschaft, priority 1992, dated 1995).

Experiments:
HIV protease = molecular target: T1, HIV protease (Human immunodeficiency virus type 1 group M subtype B, UniProt P04585); experiment: HIV protease enzyme test (cleavage of synthetic Gag peptide, RP-HPLC); assay type: biochemical; conditions: purified HIV protease, synthetic peptide substrate, read-out: IC50 (50% inhibition of the protease activity)
T1 construct: purified HIV protease was incubated with synthetic peptide
Procedure: This is verified by means of an HIV-specific protease enzyme test.
The results of the examples listed below were determined according to the HIV test system described in the following references [cf. Hansen, J., Billich, S., Schulze, T., Sukrow, S. and Molling, K (1988), EMBO Journal, Vol. 7, No. 6, pp. 1785-1791]: purified HIV protease was incubated with synthetic peptide which imitates a cleavage site in the Gag precursor protein and represents an in-vivo cleavage site for the HIV protease. The cleavage products of the synthetic peptide which resulted were analysed by means of reverse phase high performance liquid chromatography (RP-HPLC). The IC50 values which are given refer to the substance concentrations which, under the test conditions set out above, effect a 50% inhibition of the protease activity.

HIV = HIV infection in cell culture (syncytium formation in HIV-infected human PBLs); assay type: cell-based; conditions: Human immunodeficiency virus 1, Lymphocyte, 72 h; HIV-infected normal human blood lymphocytes (PBLs), 37° C., evaluated day 3 to 6 after infection; read-out: IC50 (50% of the virus-induced syncytia suppressed)
Procedure: HIV infection in cell culture
The HIV test was carried out, with minor modifications, according to the method of Pauwels et al. [cf. Journal of Virological Methods 20, (1988), 309-321].
Normal human blood lymphocytes (PBLs) were enriched through Ficoll-Hypaque and stimulated in RPMI 1640, 20% fetal calf serum containing phytohaemagglutinin (90 μg/ml) and interleukin-2 (40 U/ml). For infection with the infectious HIV, the PBLs were pelleted and the cell pellet was subsequently suspended in 1 ml of HIV virus adsorption solution and incubated at 37° C. for 1 hour.
The virus adsorption solution was centrifuged and the infected cell pellet was taken up in growth medium in such a way that the suspension was adjusted to 1×10^5 cells per ml. The cells infected in this manner were pipetted, at 1×10^4 cells/well, into the wells of 96-well microtitre plates.
The first vertical row of the microtitre plate contained only growth medium and cells which were not infected but which otherwise had been treated exactly as described above (cell control). The second vertical row of the microtitre plate contained only HIV-infected cells (virus control) in growth medium. […]
The test mixtures were incubated at 37° C. until the syncytium formation which is typical for HIV appeared in the untreated virus control (between day 3 and 6 after infection) and it was then evaluated microscopically. […]

IC50 (HIV protease)	SMILES	IC50 (HIV)
0.005 µM	O=C(NCc1ccc2c(c1)[C@@H](O)[C@H](O)c1cc(CNC(=O)OCc3ccccc3)ccc1C2=O)OCc1ccccc1 (relative stereo) [Example 4, (trans)-2,8-Bis-phenylmethoxycarbonylaminomethyl-10,11-dihydroxy-5-oxo-dibenzo[a,d]cyclohepta-1,4-diene]	10 µM
	O=C(NCc1ccc2c(c1)[C@@H](O)[C@@H](O)c1cc(CNC(=O)OCc3ccccc3)ccc1C2=O)OCc1ccccc1 [Example 5, (cis)-2,8-Bis-phenylmethoxycarbonylaminomethyl-10,11-dihydroxy-5-oxo-dibenzo[a,d]cyclohepta-1,4-diene]	10 µM
2 µM	CC(C)(C)S(=O)(=O)CC(Cc1cccc2ccccc12)C(=O)NCc1ccc2c(c1)C(O)C(O)c1cc(CNC(=O)C(Cc3cccc4ccccc34)CS(=O)(=O)C(C)(C)C)ccc1C2=O (stereo not drawn) [Example 6, (trans)-10,11-Dihydroxy-2,8-bis-[5,5-dimethyl-4,4-dioxo-2-(1-naphthylmethyl)-4-thiahexanoylaminomethyl-5-oxodibenzo[a,d]cyclohepta-1,4-diene]	
